Assay results as given in patent publication US20160128321A1, “Ladder-Frame Polyether Conjugates” (priority 2010, published 2016).
Where two headings read alike, the source gives them in different places.

How the values were obtained:
MDCK = test system: MDCK; parameters: key to the marks not given beside the values
NL20 = test system: NL20; parameters: key to the marks not given beside the values
MCF7 = test system: MCF7; parameters: key to the marks not given beside the values
rat brain synaptosomes = assay: Receptor binding assays
[1] = SJCRH30 cells, 400 nM, 1 hour at 37° C., 20× objective, Example 15C

In the case of Cc1cc(C)n2c1C=C1C=CC(CCC(=O)NN)=[N+]1[B-]2(F)F [BODIPY ®, 4,4-difluoro-5,7-dimethyl-4-bora-3a,4a-diaza-s-indacene-3-propionic acid, hydrazide], the level of fluorescence (BT549) is reported as “+”, the level of fluorescence (MDCK) is reported as “++” and the level of fluorescence (NL20) is reported as “++”. For the same compound, the level of fluorescence (HEK293) was “−”, the level of fluorescence (SJCRH30) was “+” and the level of fluorescence (DMS-114) was “−”. For the same compound, the level of fluorescence (CHO-K1) was “−”, the level of fluorescence (184B5) was “+” and the level of fluorescence (A549) was “−”. The level of fluorescence (MCF7) was “++” and the level of fluorescence (T47D) was “+”.

In the case of COc1cccc2c1C(=O)c1c(O)c3c(c(O)c1C2=O)C[C@@](O)(C(C)=O)C[C@@H]3O[C@H]1C[C@H](N)[C@H](O)[C@H](C)O1 [Daunorubicin], the level of fluorescence (SJCRH30; [1]) is reported as “−”.

For CN(C)c1ccc2c(-c3cc(C(=O)[O-])ccc3C(=O)O)c3ccc(=[N+](C)C)cc-3oc2c1 [Example 6-TAMRA, 6-carboxytetramethylrhodamine], the level of fluorescence (SJCRH30; [1]) was “−”.

In the case of C=C/C=C\CC[C@H]1O[C@H]2CC[C@@]3(C)O[C@H]4[C@@H](O)C[C@@]5(C)O[C@@H](CC/C=C(C)/C(C)=C/C=O)[C@@H](C)C[C@H]5O[C@@H]4C[C@@H]3O[C@@H]2CC[C@@]1(C)O [brevenal], the “affinity (binding to rat brain synaptosomes)” value (rat brain synaptosomes; parent compound, first value printed for brevenal) is reported as 400 to 800 nM.

In the case of C=C(C=O)C[C@@H]1C[C@H](O)[C@]2(C)O[C@@H]3C[C@@H]4O[C@@H]5C[C@]6(C)O[C@]7(C)CC[C@@H]8O[C@@H]9C[C@]%10(C)O[C@@H]%11C(C)=CC(=O)O[C@H]%11C[C@H]%10O[C@H]9C[C@@H](C)[C@H]8O[C@H]7C[C@H]6O[C@H]5C/C=C\[C@H]4O[C@H]3C[C@H]2O1 [brevetoxin], the “affinity (binding to rat brain synaptosomes)” value (rat brain synaptosomes) is reported as 2-10 nm.
